Like-named read-outs stand apart in the source and are kept apart here.
Legend:
[1] = tested on: Key Grass and Sedge Weeds as well as Grass Crops; assay: Post-Emergent Test II (Table 6); type: in vivo; details: post-emergence, 336 h, 14 days after application; for pest or weed control at 70 g/ha: 70 g ai/ha; for pest or weed control at 140 g/ha: 140 g ai/ha
Method in brief: (§1)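 Growth stage at treatment: first or second true leaf. Application: compound in acetone/DMSO diluted into an adjuvant-containing aqueous mix, sprayed at 187 L/ha at several rates. Assessment: visual 0-100% injury at 14 days against untreated plants.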

[2] = tested on: Key Broadleaf Weed and Crop Species; assay: Post-Emergent Test II (Table 5); type: in vivo; details: post-emergence, 336 h; for pest or weed control at 70 g/ha: application rate 70 (kg ai/ha; footnote: g ai/ha); for pest or weed control at 140 g/ha: application rate 140 (kg ai/ha; footnote: g ai/ha)
Method in brief: as §1

[3] = CYPSS, read-out: Visual Growth Reduction (%) 14 Days After Application CYPSS
[4] = DIGSA: crabgrass (Digitaria sanguinalis), read-out: Visual Growth Reduction (%) 14 Days After Application DIGSA
[5] = ECHSS, read-out: Visual Growth Reduction (%) 14 Days After Application ECHSS
[6] = ORYSS (crop), read-out: Visual Growth Reduction (%) 14 Days After Application ORYSS
[7] = SETFA: giant foxtail (Setaria faberi), read-out: Visual Growth Reduction (%) 14 Days After Application SETFA
[8] = SORVU: grain sorghum (Sorghum vulgare), read-out: Visual Growth Reduction (%) 14 Days After Application SORVU
[9] = TRZSS (crop), read-out: Visual Growth Reduction (%) 14 Days After Application TRZSS
[10] = ZEAMX: maize, corn (Zea mays), read-out: Visual Growth Reduction (%) 14 Days After Application ZEAMX
[11] = Abutilon theophrasti, ABUTH: velvetleaf (Abutilon theophrasti), read-out: Visual Growth Reduction (%) 14 Days After Application ABUTH
[12] = Amaranthus retroflexus, AMARE: redroot pigweed (Amaranthus retroflexus), read-out: Visual Growth Reduction (%) 14 Days After Application AMARE
[13] = Brassica napus, BRSSS: oilseed rape, canola (Brassica napus), read-out: Visual Growth Reduction (%) 14 Days After Application BRSSS
[14] = Chenopodium album, CHEAL: lambsquarters (Chenopodium album), read-out: Visual Growth Reduction (%) 14 Days After Application CHEAL
[15] = Euphorbia heterophylla, EPHHL: wild poinsettia (Euphorbia heterophylla), read-out: Visual Growth Reduction (%) 14 Days After Application EPHHL
[16] = Helianthus annuus, HELAN: sunflower (Helianthus annuus), read-out: Visual Growth Reduction (%) 14 Days After Application HELAN
[17] = Viola tricolor, VIOTR: wild pansy (Viola tricolor), read-out: Visual Growth Reduction (%) 14 Days After Application VIOTR

SMILES | pest or weed control at 70 g/ha [1, 3] [%] | pest or weed control at 140 g/ha [1, 3] [%] | pest or weed control at 70 g/ha [1, 4] [%] | pest or weed control at 140 g/ha [1, 4] [%] | pest or weed control at 70 g/ha [1, 5] [%] | pest or weed control at 140 g/ha [1, 5] [%] | pest or weed control at 70 g/ha [1, 6] [%] | pest or weed control at 140 g/ha [1, 6] [%] | pest or weed control at 70 g/ha [1, 7] [%] | pest or weed control at 140 g/ha [1, 7] [%] | pest or weed control at 70 g/ha [1, 8] [%] | pest or weed control at 140 g/ha [1, 8] [%] | pest or weed control at 70 g/ha [1, 9] [%] | pest or weed control at 140 g/ha [1, 9] [%] | pest or weed control at 70 g/ha [1, 10] [%] | pest or weed control at 140 g/ha [1, 10] [%] | melting point | pest or weed control at 70 g/ha [2, 11] [%] | pest or weed control at 140 g/ha [2, 11] [%] | pest or weed control at 70 g/ha [2, 12] [%] | also measured
Nc1cc(-c2ccc(Cl)nc2Cl)nc(C(=O)O)c1Cl [Compound 1, 4-amino-2′,5,6′-trichloro-[2,3′-bipyridine]-6-carboxylic acid] | 0 to 29 | 0 to 29 | 0 to 29 | 0 to 29 | 0 to 29 | 0 to 29 | 0 to 29 | 0 to 29 | 0 to 29 | 0 to 29 | 0 to 29 | 0 to 29 | 0 to 29 | 0 to 29 | 0 to 29 | 0 to 29 | 184 °C (dec.) | 30 to 44 | 75 to 84 | 95 to 100 | pest or weed control at 140 g/ha [2, 12]: 95 to 100%; pest or weed control at 70 g/ha [2, 13]: 85 to 94%; pest or weed control at 140 g/ha [2, 13]: 95 to 100%; pest or weed control at 70 g/ha [2, 14]: 85 to 94%; pest or weed control at 140 g/ha [2, 14]: 95 to 100%; pest or weed control at 70 g/ha [2, 15]: 0 to 29%; pest or weed control at 140 g/ha [2, 15]: 0 to 29%; pest or weed control at 70 g/ha [2, 16]: 75 to 84%; pest or weed control at 140 g/ha [2, 16]: 85 to 94%; pest or weed control at 70 g/ha [2, 17]: 0 to 29%; pest or weed control at 140 g/ha [2, 17]: 30 to 44%
COC(=O)c1nc(-c2ccc(OC(F)F)nc2)c(F)c(N)c1Cl [Compound 71] | 0 to 29 | 45 to 59 | 75 to 84 | 60 to 74 | 60 to 74 | 75 to 84 | 0 to 29 | 0 to 29 | 75 to 84 | 85 to 94 | 60 to 74 | 75 to 84 | 45 to 59 | 45 to 59 | 0 to 29 | 60 to 74 | 134 to 136 °C | 85 to 94 | 85 to 94 | 0 to 29 | pest or weed control at 140 g/ha [2, 12]: 0 to 29%; pest or weed control at 70 g/ha [2, 13]: 30 to 44%; pest or weed control at 140 g/ha [2, 13]: 45 to 59%; pest or weed control at 70 g/ha [2, 14]: 85 to 94%; pest or weed control at 140 g/ha [2, 14]: 85 to 94%; pest or weed control at 70 g/ha [2, 15]: 95 to 100%; pest or weed control at 140 g/ha [2, 15]: 95 to 100%; pest or weed control at 70 g/ha [2, 16]: 85 to 94%; pest or weed control at 140 g/ha [2, 16]: 85 to 94%; pest or weed control at 70 g/ha [2, 17]: 0 to 29%; pest or weed control at 140 g/ha [2, 17]: 0 to 29%
COC(=O)c1nc(-c2ccc(C(F)(F)F)nc2F)nc(N)c1Cl [Compound 47] | 0 to 29 | 0 to 29 | 0 to 29 | 0 to 29 | 0 to 29 | 0 to 29 | 0 to 29 | 0 to 29 | 0 to 29 | 0 to 29 | 0 to 29 | 0 to 29 | 0 to 29 | 0 to 29 | 0 to 29 | 0 to 29 | 150 to 153 °C | 0 to 29 | 0 to 29 | 0 to 29 | pest or weed control at 140 g/ha [2, 12]: 0 to 29%; pest or weed control at 70 g/ha [2, 13]: 0 to 29%; pest or weed control at 140 g/ha [2, 13]: 0 to 29%; pest or weed control at 70 g/ha [2, 14]: 0 to 29%; pest or weed control at 140 g/ha [2, 14]: 45 to 59%; pest or weed control at 70 g/ha [2, 15]: 0 to 29%; pest or weed control at 140 g/ha [2, 15]: 0 to 29%; pest or weed control at 70 g/ha [2, 16]: 0 to 29%; pest or weed control at 140 g/ha [2, 16]: 0 to 29%; pest or weed control at 70 g/ha [2, 17]: 0 to 29%; pest or weed control at 140 g/ha [2, 17]: 0 to 29%
